system: IFNγ induced ICAM-1 (CD54) up-regulation in A549 lung epithelial cells (JAK/Stat pathway); assay: A549 Epithelial Line Stimulated with IFNγ (ICAM-1 surface expression, flow cytometry); format: cell-based, human; settings: Table III Example 5
Procedure, shortened: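 A549 cells (20,000/well, adhered overnight) pre-treated with compound 1 h, then IFNγ 75 ng/mL for 24 h; compound 30 μM–14 nM in 5% FBS, 0.3% DMSO. Surface ICAM-1 stained with APC anti-CD54, geometric mean by flow cytometry; dose-response gives EC50.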

SMILES	IC50
Cc1cnc(Nc2cccc(S(N)(=O)=O)c2)nc1Nc1cccc(CN(C)S(=O)(=O)C2CC2)c1 [Compound I-120, N2-(3-aminosulfonyl)phenyl-N4-[3-(N-cyclopropylsulfonyl-N-methyl)aminomethyl]phenyl-5-methyl-2,4-pyrimidinediamine]	2.54 µM
Cc1cnc(Nc2cccc(S(N)(=O)=O)c2)nc1Nc1ccc(CN(C)S(=O)(=O)C2CC2)cc1 [Compound I-121, N2-(3-aminosulfonyl)phenyl-N4-[4-(N-cyclopropylsulfonyl-N-methyl)aminomethyl]phenyl-5-methyl-2,4-pyrimidinediamine]	36.5 µM
Cc1cnc(Nc2ccc(S(N)(=O)=O)cc2)nc1Nc1ccc(CNS(=O)(=O)C(C)C)cc1 [Compound I-123, N2-(4-aminosulfonyl)phenyl-N4-(4-isopropylsulfonylaminomethyl)phenyl-5-methyl-2,4-pyrimidinediamine]	19 µM
Cc1cnc(Nc2ccc(S(N)(=O)=O)cc2)nc1Nc1cccc(CN(C)S(=O)(=O)C2CC2)c1 [Compound I-124, N2-(4-aminosulfonyl)phenyl-N4-[3-(N-cyclopropylsulfonyl-N-methyl)aminomethyl]phenyl-5-methyl-2,4-pyrimidinediamine]	5.72 µM
Cc1ccc(Nc2ncc(C)c(Nc3ccc(CNS(=O)(=O)C4CC4)c(Cl)c3)n2)cc1S(N)(=O)=O [Compound I-125, N2-(3-aminosulfonyl-4-methyl)phenyl-N4-(3-chloro-4-cyclopropylsulfonylaminomethyl)phenyl-5-methyl-2,4-pyrimidinediamine]	4.03 µM
Cc1ccc(Nc2ncc(C)c(Nc3ccc(CN(C)S(=O)(=O)C4CC4)cc3)n2)cc1S(N)(=O)=O [Compound I-126, N2-(3-aminosulfonyl-4-methyl)phenyl-N4-[4-(N-cyclopropylsulfonyl-N-methyl)aminomethyl]phenyl-5-methyl-2,4-pyrimidinediamine]	5.56 µM
Cc1cnc(Nc2cccc(S(=O)(=O)NCc3ccccc3)c2)nc1Nc1ccc(CNS(=O)(=O)C2CC2)cc1 [Compound I-154, N2-(3-benzylaminosulfonyl)phenyl-N4-(4-cyclopropylsulfonylaminomethyl)phenyl-5-methyl-2,4-pyrimidinediamine]	6.35 µM
CNS(=O)(=O)c1cccc(Nc2ncc(C)c(Nc3ccc(CNS(=O)(=O)C4CC4)cc3)n2)c1 [Compound I-161, N4-(4-cyclopropylsulfonylaminomethyl)phenyl-5-methyl-N2-(3-methylaminosulfonyl)phenyl-2,4-pyrimidinediamine]	24.4 µM
CNS(=O)(=O)c1cccc(Nc2ncc(C)c(Nc3cccc(CNS(=O)(=O)C4CC4)c3)n2)c1 [Compound I-162, N4-(3-cyclopropylsulfonylaminomethyl)phenyl-5-methyl-N2-(3-methylaminosulfonyl)phenyl-2,4-pyrimidinediamine]	1.92 µM
C#CCNS(=O)(=O)c1ccc(Nc2ncc(C)c(Nc3ccc(CNS(=O)(=O)C4CC4)cc3)n2)cc1 [Compound I-164, N4-(4-cyclopropylsulfonylaminomethyl)phenyl-5-methyl-N2-(4-propargylaminosulfonyl)phenyl-2,4-pyrimidinediamine]	13.8 µM
C#CCNS(=O)(=O)c1cccc(Nc2ncc(C)c(Nc3ccc(CNS(=O)(=O)C4CC4)cc3)n2)c1 [Compound I-165, N4-(4-cyclopropylsulfonylaminomethyl)phenyl-5-methyl-N2-(3-propargylaminosulfonyl)phenyl-2,4-pyrimidinediamine]	8.97 µM
Cc1cnc(Nc2cccc(S(=O)(=O)NC(C)C)c2)nc1Nc1ccc(CNS(=O)(=O)C2CC2)cc1 [Compound I-173, N4-(4-cyclopropylsulfonylaminomethyl)phenyl-N2-(3-isopropylaminosulfonyl)phenyl-5-methyl-2,4-pyrimidinediamine]	1.88 µM
CCNS(=O)(=O)c1ccc(Nc2ncc(C)c(Nc3ccc(CNS(=O)(=O)C4CC4)cc3)n2)cc1 [Compound I-175, N4-(4-cyclopropylsulfonylaminomethyl)phenyl-N2-(4-ethylaminosulfonyl)phenyl-5-methyl-2,4-pyrimidinediamine]	2.37 µM
CCNS(=O)(=O)c1cccc(Nc2ncc(C)c(Nc3ccc(CNS(=O)(=O)C4CC4)cc3)n2)c1 [Compound I-176, N4-(4-cyclopropylsulfonylaminomethyl)phenyl-N2-(3-ethylaminosulfonyl)phenyl-5-methyl-2,4-pyrimidinediamine]	10.4 µM
CCCNS(=O)(=O)c1cccc(Nc2ncc(C)c(Nc3ccc(CNS(=O)(=O)C4CC4)cc3)n2)c1 [Compound I-178, N4-(4-cyclopropylsulfonylaminomethyl)phenyl-5-methyl-N2-(3-propylaminosulfonyl)phenyl-2,4-pyrimidinediamine]	5.45 µM
Cc1cnc(Nc2cccc(S(=O)(=O)NCC3CC3)c2)nc1Nc1ccc(CNS(=O)(=O)C2CC2)cc1 [Compound I-180, N2-(3-cyclopropylmethylaminosulfonyl)phenyl-N4-(4-cyclopropylsulfonylaminomethyl)phenyl-5-methyl-2,4-pyrimidinediamine]	2.22 µM

SMILES	IC50
COCCCNS(=O)(=O)c1ccc(Nc2ncc(C)c(Nc3ccc(CNS(=O)(=O)C4CC4)cc3)n2)cc1 [Compound I-181, N4-(4-cyclopropylsulfonylaminomethyl)phenyl-N2-[4-(3-methoxypropyl)aminosulfonyl]phenyl-5-methyl-2,4-pyrimidinediamine]	2.35 µM
COCCCNS(=O)(=O)c1cccc(Nc2ncc(C)c(Nc3ccc(CNS(=O)(=O)C4CC4)cc3)n2)c1 [Compound I-182, N4-(4-cyclopropylsulfonylaminomethyl)phenyl-N2-[3-(3-methoxypropyl)aminosulfonyl]phenyl-5-methyl-2,4-pyrimidinediamine]	2.25 µM
COCCNS(=O)(=O)c1cccc(Nc2ncc(C)c(Nc3ccc(CNS(=O)(=O)C4CC4)cc3)n2)c1 [Compound I-184, N4-(4-cyclopropylsulfonylaminomethyl)phenyl-N2-[3-(2-methoxyethyl)aminosulfonyl]phenyl-5-methyl-2,4-pyrimidinediamine]	1.41 µM
CNS(=O)(=O)c1cc(Nc2ncc(C)c(Nc3ccc(CNS(=O)(=O)C4CC4)cc3)n2)ccc1C [Compound I-185, N4-(4-cyclopropylsulfonylaminomethyl)phenyl-5-methyl-N2-(4-methyl-3-methylaminosulfonyl)phenyl-2,4-pyrimidinediamine]	4.1 µM
CCNS(=O)(=O)c1cc(Nc2ncc(C)c(Nc3ccc(CNS(=O)(=O)C4CC4)cc3)n2)ccc1C [Compound I-186, N4-(4-cyclopropylsulfonylaminomethyl)phenyl-N2-(3-ethylaminosulfonyl-4-methyl)phenyl-5-methyl-2,4-pyrimidinediamine]	1.76 µM
CCCNS(=O)(=O)c1cc(Nc2ncc(C)c(Nc3ccc(CNS(=O)(=O)C4CC4)cc3)n2)ccc1C [Compound I-187, N4-(4-cyclopropylsulfonylaminomethyl)phenyl-5-methyl-N2-(4-methyl-3-propylaminosulfonyl)phenyl-2,4-pyrimidinediamine]	2.42 µM
C#CCNS(=O)(=O)c1cc(Nc2ncc(C)c(Nc3ccc(CNS(=O)(=O)C4CC4)cc3)n2)ccc1C [Compound I-188, N4-(4-cyclopropylsulfonylaminomethyl)phenyl-5-methyl-N2-(4-methyl-3-propargylaminosulfonyl)phenyl-2,4-pyrimidinediamine]	5.08 µM
Cc1ccc(Nc2ncc(C)c(Nc3ccc(CNS(=O)(=O)C4CC4)cc3)n2)cc1S(=O)(=O)NC(C)C [Compound I-189, N4-(4-cyclopropylsulfonylaminomethyl)phenyl-N2-(3-isopropylaminosulfonyl-4-methyl)phenyl-5-methyl-2,4-pyrimidinediamine]	1.72 µM
COCCNS(=O)(=O)c1cc(Nc2ncc(C)c(Nc3ccc(CNS(=O)(=O)C4CC4)cc3)n2)ccc1C [Compound I-190, N4-(4-cyclopropylsulfonylaminomethyl)phenyl-N2-[3-(2-methoxyethyl)aminosulfonyl-4-methyl]phenyl-5-methyl-2,4-pyrimidinediamine]	1.36 µM
COCCCNS(=O)(=O)c1cc(Nc2ncc(C)c(Nc3ccc(CNS(=O)(=O)C4CC4)cc3)n2)ccc1C [Compound I-191, N4-(4-cyclopropylsulfonylaminomethyl)phenyl-N2-[3-(3-methoxypropyl)aminosulfonyl-4-methyl]phenyl-5-methyl-2,4-pyrimidinediamine]	3.06 µM
Cc1ccc(Nc2ncc(C)c(Nc3ccc(CNS(=O)(=O)C4CC4)cc3)n2)cc1S(=O)(=O)NCC1CC1 [Compound I-192, N2-(3-cyclopropylmethylaminosulfonyl-4-methyl)phenyl-N4-(4-cyclopropylsulfonylaminomethyl)phenyl-5-methyl-2,4-pyrimidinediamine]	2.3 µM
Cc1ccc(Nc2ncc(C)c(Nc3ccc(CNS(=O)(=O)C4CC4)cc3)n2)cc1S(=O)(=O)NCc1ccccc1 [Compound I-195, N2-(3-benzylaminosulfonyl-4-methyl)phenyl-N4-(4-cyclopropylsulfonylaminomethyl)phenyl-5-methyl-2,4-pyrimidinediamine]	3.54 µM
Cc1ccc(Nc2ncc(C)c(Nc3ccc(CNS(=O)(=O)C4CC4)cc3)n2)cc1S(=O)(=O)Nc1ccccc1 [Compound I-202, N4-(4-cyclopropylsulfonylaminomethyl)phenyl-5-methyl-N2-(4-methyl-3-phenylaminosulfonyl)phenyl-2,4-pyrimidinediamine]	6.05 µM
CNS(=O)(=O)c1ccc(Nc2ncc(C)c(Nc3cccc(CNS(=O)(=O)C4CC4)c3)n2)cc1 [Compound I-207, N4-(3-cyclopropylsulfonylaminomethyl)phenyl-5-methyl-N2-(4-methylaminosulfonyl)phenyl-2,4-pyrimidinediamine]	6.11 µM
CCNS(=O)(=O)c1cccc(Nc2ncc(C)c(Nc3cccc(CNS(=O)(=O)C4CC4)c3)n2)c1 [Compound I-208, N4-(3-cyclopropylsulfonylaminomethyl)phenyl-N2-(3-ethylaminosulfonyl)phenyl-5-methyl-2,4-pyrimidinediamine]	1.3 µM

From US9481654B2, “Compositions and methods for inhibition of the JAK pathway” (Rigel Pharmaceuticals, Inc., priority 2006, dated 2016)
